Values joined by “and” are separate entries in the source; they are usually repeats but may differ in a detail not shown here. Equal entries are not always repeated. Where two headings read alike, the source gives them in different places.
How the values were obtained:
Experiment in all cases: Disk diffusion assay (zone of inhibition)
[1] = tested on: hVISA NRS2; assay type: cell-based; conditions: Staphylococcus aureus, Oxoid disks, 20 μl of 18 mg/ml oritavancin in 5% P80, stored 30 days at room temperature, prediffusion 6 hours at 4° C., read-out: Inhibition zone diameter
[2] = tested on: MSSA S815247; assay type: cell-based, Staphylococcus aureus; conditions: 20 μl of 1.25 mg/ml in 4% P80/Span 80 (1:1), calcium alginate swabs, dried overnight, duplicate
Method: (§1) Oritavancin powder was dissolved in freshly-prepared solutions of the indicated excipients at concentrations of 0.625, 1.25, 2.5, 5, and 10 mg/ml (adjusted for potency based on lot 875561L00 purity of 83.1%) by vortexing for a minimum of 5 minutes. Oritavancin solutions in the various excipients, while not visually clear, were free from any apparent particulates as assessed visually. Sterile Oxoid blank disks were impregnated with 20 μl of these oritavancin solutions, resulting in oritavancin disk loads ranging from 12.5 to 200 μg. Unless indicated otherwise, disks were allowed to dry overnight at room temperature prior to use.
(§2) Bacterial suspensions from isolated colonies on overnight cation-adjusted Mueller Hinton agar plates were prepared in sterile saline and adjusted to an optical density of 0.1 at 600 nm Standard cation-adjusted Mueller Hinton agar plates (90 mm diameter) were seeded with bacterial suspensions by initially swabbing the center of plate then moving outward. Swabbing was continued at a right angle and then at an oblique angle to the first and second swabs. Disks were placed upon the seeded plates with sterile forceps. Plates were then incubated overnight at 37° C. and inhibition zone diameters were measured with a ruler and reported in millimeters.

[3] = tested on: MRSA Q141067; assay type: cell-based, Staphylococcus aureus; conditions: 20 μl of 1.25 mg/ml in 4% P80/Span 80 (1:1), calcium alginate swabs, dried overnight, duplicate
Method: as §1, §2

[4] = tested on: MSSA T811355; assay type: cell-based, Staphylococcus aureus; conditions: 20 μl of 1.25 mg/ml in 4% P80/Span 80 (1:1), calcium alginate swabs, dried overnight, duplicate
Method: as §1, §2

[5] = tested on: MRSA Q670607; assay type: cell-based, Staphylococcus aureus; conditions: 20 μl of 1.25 mg/ml in 4% P80/Span 80 (1:1), calcium alginate swabs, dried overnight, duplicate
Method: as §1, §2

[6] = tested on: hVISA NRS36; assay type: cell-based, Staphylococcus aureus; conditions: 25 μg (1.25 mg/ml) in 4% P80/Span 80 (1:1), dried overnight
Method: as §1, §2

[7] = tested on: MSSA U781969; assay type: cell-based, Staphylococcus aureus; conditions: 20 μl of 1.25 mg/ml in 4% P80/Span 80 (1:1), calcium alginate swabs, dried overnight, duplicate
Method: as §1, §2

[8] = tested on: MSSA S815246; assay type: cell-based, Staphylococcus aureus; conditions: 20 μl of 1.25 mg/ml in 4% P80/Span 80 (1:1), calcium alginate swabs, dried overnight, duplicate
Method: as §1, §2

[9] = tested on: MRSA U206056; assay type: cell-based, Staphylococcus aureus; conditions: for zone of inhibition at 360 µg/disc: read-out: Zone diameter (mm ± SD)
Source text: (§3) The study was designed to identify conditions that improve oritavancin diffusion in agar and consequently yield a zone diameter ≧15 mm for the CLSI quality control strain MSSA ATCC 25923. Excipients that increased the disk diffusion of oritavancin in agar relative to disks containing only oritavancin were identified and selected for further study. […] A prediffusion step at room temperature was introduced to maximize oritavancin diffusion prior to initiation of bacterial growth. In this step, the antimicrobial disks were placed on agar plates seeded with a bacterial isolate and incubated at room temperature for 3 hours. Plates were then incubated overnight at 37° C. Zone diameters around the disks in which bacterial growth was inhibited were measured with a ruler and reported in millimeters.
(§4) Ethanol-sterilized Whatman paper disks (6 mm diameter) were allowed to dry then impregnated with 20 microliters of oritavancin solution containing total amounts ranging from 90 to 360 micrograms. Disks were allowed to dry at room temperature for various times prior to use.
(§5) Bacterial suspensions were prepared and adjusted to an optical density of 0.1 at 600 nm. Standard cation-adjusted Mueller Hinton agar plates (90 mm diameter) were seeded with bacterial suspensions by initially swabbing the center of plate then moving outward towards the edge. The plate was swabbed a second time, perpendicular to the orientation of the first swab. To assess the impact of prediffusion on diameter of inhibition zones, two disks were immediately placed on one half of the plate and the plate was incubated for 3 hours at room temperature. After 3 hours, two additional disks were placed on the other half of the plate then the plate was incubated overnight at 37° C. Zone diameters were measured with a ruler and reported in millimeters.
as §1, §2

[10] = tested on: VISA NRS3; assay type: cell-based, Staphylococcus aureus; conditions: for zone of inhibition at 360 µg/disc: Staphylococcus aureus, 360 μg oritavancin, 3 h prediffusion, average of 2 disks, read-out: Average zone diameter
Source text: as §3, §4, §5, §1, §2

[11] = tested on: VISA NRS402; assay type: cell-based, Staphylococcus aureus; conditions: for zone of inhibition at 360 µg/disc: Staphylococcus aureus
Source text: as §3, §4, §5, §1, §2

[12] = Staphylococcus aureus, MSSA, read-out: Inhibition zone diameter
[13] = Staphylococcus aureus, MRSA, read-out: Inhibition zone diameter
[14] = 25 μg (1.25 mg/ml) in 4% P80/Span 80 (1:1), dried overnight

`CN[C@H](CC(C)C)C(=O)N[C@H]1C(=O)N[C@@H](CC(N)=O)C(=O)N[C@H]2C(=O)N[C@H]3C(=O)N[C@H](C(=O)N[C@H](C(=O)O)c4cc(O)cc(O)c4-c4cc3ccc4O)[C@H](O[C@H]3C[C@](C)(N)[C@@H](O)[C@H](C)O3)c3ccc(c(Cl)c3)Oc3cc2cc(c3O[C@@H]2O[C@H](CO)[C@@H](O)[C@H](O)[C@H]2O[C@H]2C[C@](C)(NCc3ccc(-c4ccc(Cl)cc4)cc3)[C@@H](O)[C@H](C)O2)Oc2ccc(cc2Cl)[C@H]1O` [oritavancin, N-(4-(4-chlorophenyl)benzyl)A82846B] showed a zone of inhibition at 18000 µg/mL [1] of 16.5 mm, an Inhibition zone diameter [2] of 21 mm and a zone of inhibition at 1250 µg/mL [2, 12] of 20 mm. It also gave an Inhibition zone diameter [3] of 22 mm, a zone of inhibition at 1250 µg/mL [3, 13] of 21 mm and an Inhibition zone diameter [4] of 22 mm. The zone of inhibition at 1250 µg/mL [4, 12] was 21 mm, the Inhibition zone diameter [5] was 22 mm and the zone of inhibition at 1250 µg/mL [5, 13] was 21 mm. For the same molecule, the Inhibition zone diameter ([6]; NRS36) was 12 mm, the zone of inhibition at 25 µg/disc ([6]; Staphylococcus aureus, NRS36, read-out: Inhibition zone diameter, NRS36) was 11 mm and the Inhibition zone diameter [7] was 23 mm. It also gave a zone of inhibition at 1250 µg/mL [7, 12] of 22 mm, an Inhibition zone diameter [8] of 22 mm and a zone of inhibition at 1250 µg/mL [8, 12] of 21 mm. For the same molecule, the Inhibition zone diameter [9, 14] was 17 mm and 18, 18 mm, the zone of inhibition at 25 µg/disc ([9]; Staphylococcus aureus, MRSA, 25 μg (1.25 mg/ml) in 4% P80/Span 80 (1:1), dried overnight, read-out: Inhibition zone diameter) was 18 mm and the zone of inhibition at 360 µg/disc ([9]; Staphylococcus aureus, MRSA, 360 μg in 5% P80, Average of experiments, no prediffusion) was 15 ± 0.6 mm. For the same molecule, the zone of inhibition at 360 µg/disc ([9]; Staphylococcus aureus, MRSA, 360 μg in 5% P80, Average of experiments, prediffusion) was 17.4 ± 0.5 mm, the zone of inhibition at 360 µg/disc ([9]; Staphylococcus aureus, MRSA, 360 μg in 5% P80, Experiment 1, disks stored 14 days, 3 h prediffusion at room temperature) was 17.8 ± 0.4 mm and the zone of inhibition at 360 µg/disc ([9]; Staphylococcus aureus, MRSA, 360 μg in 5% P80, Experiment 2, disks stored 8 days, 3 h prediffusion at room temperature) was 17 mm. For the same molecule, the zone of inhibition at 360 µg/disc ([9]; Staphylococcus aureus, MRSA, 192 h, 360 μg in 5% P80, Experiment 2, disks stored 8 days, no prediffusion) was 14.5 mm, the zone of inhibition at 360 µg/disc ([9]; Staphylococcus aureus, MRSA, 336 h, 360 μg in 5% P80, Experiment 1, disks stored 14 days, no prediffusion) was 15.5 mm and the Inhibition zone diameter [10, 14] was “no zone”. The zone of inhibition at 360 µg/disc ([10]; excipient 5% P80, disks stored 5 days at room temperature) was 14 mm, the zone of inhibition at 360 µg/disc ([10]; excipient 10% HPCD, disks made same day) was 16.8 mm and the Inhibition zone diameter [11, 14] was “no zone”. For the same molecule, the zone of inhibition at 360 µg/disc ([11]; 360 μg in 5% P80, Average of experiments, no prediffusion, read-out: Zone diameter (mm ± SD)) was 13.1 ± 0.3 mm, the zone of inhibition at 360 µg/disc ([11]; 360 μg in 5% P80, Average of experiments, prediffusion, read-out: Zone diameter (mm ± SD)) was 14.5 ± 0.4 mm and the zone of inhibition at 360 µg/disc ([11]; 360 μg in 5% P80, Experiment 1, disks stored 14 days, 3 h prediffusion at room temperature, read-out: Zone diameter (mm ± SD)) was 14.8 ± 0.4 mm. For the same molecule, the zone of inhibition at 360 µg/disc ([11]; 360 μg in 5% P80, Experiment 2, disks stored 8 days, 3 h prediffusion at room temperature, read-out: Zone diameter (mm ± SD)) was 14.3 ± 0.4 mm, the zone of inhibition at 360 µg/disc ([11]; 360 μg oritavancin, excipient 5% P80, disks stored 5 days at room temperature, 3 h prediffusion, average of 2 disks, read-out: Average zone diameter) was 14.8 mm and the zone of inhibition at 360 µg/disc ([11]; 3 h, 360 μg oritavancin, excipient 10% HPCD, disks made same day, 3 h prediffusion, average of 2 disks, read-out: Average zone diameter) was 17.5 mm. It also gave a zone of inhibition at 360 µg/disc ([11]; 192 h, 360 μg in 5% P80, Experiment 2, disks stored 8 days, no prediffusion, read-out: Zone diameter (mm ± SD)) of 13 mm and a zone of inhibition at 360 µg/disc ([11]; 336 h, 360 μg in 5% P80, Experiment 1, disks stored 14 days, no prediffusion, read-out: Zone diameter (mm ± SD)) of 13.3 ± 0.4 mm.

Source: patent US8815535B2, “Disk diffusion assay for oritavancin” (The Medicines Company, priority 2011, dated 2014)
